Holding throughout (experiment): pIC50, kinobeads binding competition
For one assay, the target named is MAST4 (UniProt O15021). Put shortly: (§1)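 Live Jurkat cells were treated with nine compound concentrations (top 30 μM, 1:4 steps) or DMSO for 60 min at 37 °C before lysis. Alternatively, Jurkat lysate or a 1:1:1:1 HEK293/K-562/HepG2/placenta lysate mix was incubated with nine concentrations (top 30 μM, 1:5 steps) for 60 min at 4 °C. Kinobeads-bound proteins were digested and quantified by TMT10 LC-MS/MS. pIC50 came from logistic dose-response fits (R drc package) of fold changes versus DMSO, in biological duplicates.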

The target of the next assay is T1, TNK1 (UniProt Q13470).
T1 sequence (whole entry): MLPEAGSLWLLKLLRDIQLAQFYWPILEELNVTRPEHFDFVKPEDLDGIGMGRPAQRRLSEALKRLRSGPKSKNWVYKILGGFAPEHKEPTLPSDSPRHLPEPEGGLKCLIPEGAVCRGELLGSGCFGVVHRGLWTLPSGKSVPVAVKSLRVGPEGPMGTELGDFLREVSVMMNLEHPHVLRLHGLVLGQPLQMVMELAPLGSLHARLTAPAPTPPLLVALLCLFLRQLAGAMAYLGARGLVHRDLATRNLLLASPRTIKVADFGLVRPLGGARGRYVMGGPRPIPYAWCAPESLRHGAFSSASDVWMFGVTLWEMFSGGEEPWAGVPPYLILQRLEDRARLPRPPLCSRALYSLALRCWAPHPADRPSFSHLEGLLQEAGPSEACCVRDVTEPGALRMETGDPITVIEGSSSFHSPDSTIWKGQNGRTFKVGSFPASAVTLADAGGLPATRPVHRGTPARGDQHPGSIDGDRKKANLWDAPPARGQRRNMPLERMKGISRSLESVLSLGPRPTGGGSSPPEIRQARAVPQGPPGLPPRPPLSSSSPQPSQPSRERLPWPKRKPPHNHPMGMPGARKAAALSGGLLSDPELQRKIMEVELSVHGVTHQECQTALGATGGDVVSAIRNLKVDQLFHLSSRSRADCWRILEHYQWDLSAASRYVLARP
To be noted: cell material: Lysate mix. In short, it runs like this: as §1

In the next assay the target is T2, LATS1 (UniProt O95835).
T2 sequence (whole entry): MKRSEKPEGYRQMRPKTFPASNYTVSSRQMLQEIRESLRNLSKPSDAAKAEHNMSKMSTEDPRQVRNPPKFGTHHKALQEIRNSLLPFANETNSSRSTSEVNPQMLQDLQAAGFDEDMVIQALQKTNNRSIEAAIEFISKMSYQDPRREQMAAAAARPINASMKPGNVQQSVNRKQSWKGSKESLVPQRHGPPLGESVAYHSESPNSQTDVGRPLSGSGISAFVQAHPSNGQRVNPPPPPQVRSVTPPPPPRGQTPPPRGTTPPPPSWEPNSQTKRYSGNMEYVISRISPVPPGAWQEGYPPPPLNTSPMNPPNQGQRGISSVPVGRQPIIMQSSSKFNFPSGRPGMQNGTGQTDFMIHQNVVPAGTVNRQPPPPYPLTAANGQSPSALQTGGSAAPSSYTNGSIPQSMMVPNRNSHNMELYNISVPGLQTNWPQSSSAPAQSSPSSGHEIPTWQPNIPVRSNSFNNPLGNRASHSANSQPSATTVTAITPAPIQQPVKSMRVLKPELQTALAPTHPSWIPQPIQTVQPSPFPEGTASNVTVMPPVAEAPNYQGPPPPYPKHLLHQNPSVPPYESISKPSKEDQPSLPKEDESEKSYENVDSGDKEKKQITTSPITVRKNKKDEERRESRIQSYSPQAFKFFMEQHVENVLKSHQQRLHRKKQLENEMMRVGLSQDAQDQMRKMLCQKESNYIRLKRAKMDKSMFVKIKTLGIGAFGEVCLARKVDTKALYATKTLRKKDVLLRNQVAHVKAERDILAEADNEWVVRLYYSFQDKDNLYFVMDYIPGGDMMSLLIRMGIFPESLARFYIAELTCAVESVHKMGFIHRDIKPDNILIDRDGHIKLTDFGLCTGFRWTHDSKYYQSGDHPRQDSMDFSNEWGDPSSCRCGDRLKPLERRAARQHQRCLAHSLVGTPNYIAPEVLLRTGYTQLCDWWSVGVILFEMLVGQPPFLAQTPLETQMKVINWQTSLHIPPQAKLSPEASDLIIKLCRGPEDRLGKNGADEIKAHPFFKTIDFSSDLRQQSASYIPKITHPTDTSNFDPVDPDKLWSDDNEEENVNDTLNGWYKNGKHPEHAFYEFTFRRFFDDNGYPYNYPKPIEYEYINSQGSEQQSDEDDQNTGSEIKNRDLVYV
Put shortly: as §1

The next assay concerns the target UniProt P51812. In short, it runs like this:
as §1

In a further assay the target is IRAK1 (UniProt P51617). Put shortly:
as §1

The target of the next assay is CAMK2G (UniProt Q13555). In short, it runs like this: as §1
The next assay has as its target T3, UniProt P25098.
T3 sequence (whole entry): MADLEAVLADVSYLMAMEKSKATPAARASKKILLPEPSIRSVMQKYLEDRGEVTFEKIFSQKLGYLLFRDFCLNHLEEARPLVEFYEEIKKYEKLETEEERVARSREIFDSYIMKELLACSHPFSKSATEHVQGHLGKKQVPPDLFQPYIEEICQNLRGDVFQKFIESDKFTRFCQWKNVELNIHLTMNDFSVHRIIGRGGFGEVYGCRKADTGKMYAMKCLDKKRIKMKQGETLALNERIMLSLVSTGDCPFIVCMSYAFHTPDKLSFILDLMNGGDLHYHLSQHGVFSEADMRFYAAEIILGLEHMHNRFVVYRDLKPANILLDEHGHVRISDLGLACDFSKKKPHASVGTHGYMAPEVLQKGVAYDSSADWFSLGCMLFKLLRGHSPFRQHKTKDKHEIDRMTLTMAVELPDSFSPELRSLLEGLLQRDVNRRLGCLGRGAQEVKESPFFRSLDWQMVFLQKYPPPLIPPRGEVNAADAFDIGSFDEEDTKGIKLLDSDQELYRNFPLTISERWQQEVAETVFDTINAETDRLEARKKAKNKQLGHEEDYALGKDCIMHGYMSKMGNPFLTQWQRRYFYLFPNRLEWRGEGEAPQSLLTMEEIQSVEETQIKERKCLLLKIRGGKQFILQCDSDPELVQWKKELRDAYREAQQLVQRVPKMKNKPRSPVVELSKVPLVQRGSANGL
Put shortly:
as §1

Another assay concerns the target UniProt P68400. Put shortly: as §1
For the next assay, the target named is UniProt Q02763. To be noted: cell material: Lysate mix. Put shortly:
as §1

Data on six compounds can be found in the supplement of paper PMC12076712.

SMILES strings stand for the structures. Some results are limits rather than exact numbers.

Chain of IRAK1 (P51617 whole entry, looked up): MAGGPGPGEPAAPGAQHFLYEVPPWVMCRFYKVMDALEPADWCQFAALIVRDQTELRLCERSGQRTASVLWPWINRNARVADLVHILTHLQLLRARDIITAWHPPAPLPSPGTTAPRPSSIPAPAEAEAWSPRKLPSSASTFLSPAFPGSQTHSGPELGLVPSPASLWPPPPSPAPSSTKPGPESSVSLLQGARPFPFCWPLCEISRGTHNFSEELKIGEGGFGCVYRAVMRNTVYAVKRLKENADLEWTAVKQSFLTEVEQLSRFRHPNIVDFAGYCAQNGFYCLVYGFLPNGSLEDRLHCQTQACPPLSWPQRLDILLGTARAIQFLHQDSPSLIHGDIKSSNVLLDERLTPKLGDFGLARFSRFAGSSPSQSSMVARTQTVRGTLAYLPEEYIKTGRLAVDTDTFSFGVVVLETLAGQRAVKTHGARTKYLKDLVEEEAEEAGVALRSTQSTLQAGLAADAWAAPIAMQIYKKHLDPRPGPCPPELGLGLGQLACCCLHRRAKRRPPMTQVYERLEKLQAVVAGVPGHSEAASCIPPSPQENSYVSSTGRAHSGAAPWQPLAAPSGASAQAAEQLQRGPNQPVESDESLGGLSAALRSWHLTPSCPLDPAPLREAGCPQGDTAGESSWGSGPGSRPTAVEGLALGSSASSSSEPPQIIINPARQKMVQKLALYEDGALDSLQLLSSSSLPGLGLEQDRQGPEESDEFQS
Chain of UniProt Q02763 (Q02763 whole entry): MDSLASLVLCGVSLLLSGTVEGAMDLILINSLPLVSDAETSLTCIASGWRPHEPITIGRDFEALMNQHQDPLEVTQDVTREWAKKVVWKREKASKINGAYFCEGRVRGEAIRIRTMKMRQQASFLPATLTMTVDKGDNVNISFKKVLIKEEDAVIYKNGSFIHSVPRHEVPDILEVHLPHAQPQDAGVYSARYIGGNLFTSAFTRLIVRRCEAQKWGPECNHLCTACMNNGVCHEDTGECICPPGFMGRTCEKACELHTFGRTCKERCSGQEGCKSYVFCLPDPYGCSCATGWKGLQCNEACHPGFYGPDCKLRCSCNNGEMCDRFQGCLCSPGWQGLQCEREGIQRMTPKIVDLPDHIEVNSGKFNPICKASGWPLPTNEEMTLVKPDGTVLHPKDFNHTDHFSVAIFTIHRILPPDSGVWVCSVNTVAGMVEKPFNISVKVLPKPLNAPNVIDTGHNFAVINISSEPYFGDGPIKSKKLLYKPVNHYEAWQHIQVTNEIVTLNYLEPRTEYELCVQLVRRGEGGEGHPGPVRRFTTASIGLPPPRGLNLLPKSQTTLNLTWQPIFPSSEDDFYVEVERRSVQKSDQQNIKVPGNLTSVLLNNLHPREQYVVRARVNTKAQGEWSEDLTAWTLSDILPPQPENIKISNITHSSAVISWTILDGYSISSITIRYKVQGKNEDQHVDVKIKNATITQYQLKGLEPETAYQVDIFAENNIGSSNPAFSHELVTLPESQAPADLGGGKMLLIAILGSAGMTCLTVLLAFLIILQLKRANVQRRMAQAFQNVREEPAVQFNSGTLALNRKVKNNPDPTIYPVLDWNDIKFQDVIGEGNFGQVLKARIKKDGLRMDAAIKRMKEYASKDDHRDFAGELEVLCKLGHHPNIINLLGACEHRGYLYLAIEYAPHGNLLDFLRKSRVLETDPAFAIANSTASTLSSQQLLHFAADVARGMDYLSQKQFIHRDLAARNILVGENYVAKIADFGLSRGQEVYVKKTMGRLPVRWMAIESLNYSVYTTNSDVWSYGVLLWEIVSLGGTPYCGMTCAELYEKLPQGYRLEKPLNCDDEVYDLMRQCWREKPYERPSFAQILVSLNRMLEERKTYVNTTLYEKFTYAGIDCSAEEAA
Chain of MAST4 (O15021 whole entry): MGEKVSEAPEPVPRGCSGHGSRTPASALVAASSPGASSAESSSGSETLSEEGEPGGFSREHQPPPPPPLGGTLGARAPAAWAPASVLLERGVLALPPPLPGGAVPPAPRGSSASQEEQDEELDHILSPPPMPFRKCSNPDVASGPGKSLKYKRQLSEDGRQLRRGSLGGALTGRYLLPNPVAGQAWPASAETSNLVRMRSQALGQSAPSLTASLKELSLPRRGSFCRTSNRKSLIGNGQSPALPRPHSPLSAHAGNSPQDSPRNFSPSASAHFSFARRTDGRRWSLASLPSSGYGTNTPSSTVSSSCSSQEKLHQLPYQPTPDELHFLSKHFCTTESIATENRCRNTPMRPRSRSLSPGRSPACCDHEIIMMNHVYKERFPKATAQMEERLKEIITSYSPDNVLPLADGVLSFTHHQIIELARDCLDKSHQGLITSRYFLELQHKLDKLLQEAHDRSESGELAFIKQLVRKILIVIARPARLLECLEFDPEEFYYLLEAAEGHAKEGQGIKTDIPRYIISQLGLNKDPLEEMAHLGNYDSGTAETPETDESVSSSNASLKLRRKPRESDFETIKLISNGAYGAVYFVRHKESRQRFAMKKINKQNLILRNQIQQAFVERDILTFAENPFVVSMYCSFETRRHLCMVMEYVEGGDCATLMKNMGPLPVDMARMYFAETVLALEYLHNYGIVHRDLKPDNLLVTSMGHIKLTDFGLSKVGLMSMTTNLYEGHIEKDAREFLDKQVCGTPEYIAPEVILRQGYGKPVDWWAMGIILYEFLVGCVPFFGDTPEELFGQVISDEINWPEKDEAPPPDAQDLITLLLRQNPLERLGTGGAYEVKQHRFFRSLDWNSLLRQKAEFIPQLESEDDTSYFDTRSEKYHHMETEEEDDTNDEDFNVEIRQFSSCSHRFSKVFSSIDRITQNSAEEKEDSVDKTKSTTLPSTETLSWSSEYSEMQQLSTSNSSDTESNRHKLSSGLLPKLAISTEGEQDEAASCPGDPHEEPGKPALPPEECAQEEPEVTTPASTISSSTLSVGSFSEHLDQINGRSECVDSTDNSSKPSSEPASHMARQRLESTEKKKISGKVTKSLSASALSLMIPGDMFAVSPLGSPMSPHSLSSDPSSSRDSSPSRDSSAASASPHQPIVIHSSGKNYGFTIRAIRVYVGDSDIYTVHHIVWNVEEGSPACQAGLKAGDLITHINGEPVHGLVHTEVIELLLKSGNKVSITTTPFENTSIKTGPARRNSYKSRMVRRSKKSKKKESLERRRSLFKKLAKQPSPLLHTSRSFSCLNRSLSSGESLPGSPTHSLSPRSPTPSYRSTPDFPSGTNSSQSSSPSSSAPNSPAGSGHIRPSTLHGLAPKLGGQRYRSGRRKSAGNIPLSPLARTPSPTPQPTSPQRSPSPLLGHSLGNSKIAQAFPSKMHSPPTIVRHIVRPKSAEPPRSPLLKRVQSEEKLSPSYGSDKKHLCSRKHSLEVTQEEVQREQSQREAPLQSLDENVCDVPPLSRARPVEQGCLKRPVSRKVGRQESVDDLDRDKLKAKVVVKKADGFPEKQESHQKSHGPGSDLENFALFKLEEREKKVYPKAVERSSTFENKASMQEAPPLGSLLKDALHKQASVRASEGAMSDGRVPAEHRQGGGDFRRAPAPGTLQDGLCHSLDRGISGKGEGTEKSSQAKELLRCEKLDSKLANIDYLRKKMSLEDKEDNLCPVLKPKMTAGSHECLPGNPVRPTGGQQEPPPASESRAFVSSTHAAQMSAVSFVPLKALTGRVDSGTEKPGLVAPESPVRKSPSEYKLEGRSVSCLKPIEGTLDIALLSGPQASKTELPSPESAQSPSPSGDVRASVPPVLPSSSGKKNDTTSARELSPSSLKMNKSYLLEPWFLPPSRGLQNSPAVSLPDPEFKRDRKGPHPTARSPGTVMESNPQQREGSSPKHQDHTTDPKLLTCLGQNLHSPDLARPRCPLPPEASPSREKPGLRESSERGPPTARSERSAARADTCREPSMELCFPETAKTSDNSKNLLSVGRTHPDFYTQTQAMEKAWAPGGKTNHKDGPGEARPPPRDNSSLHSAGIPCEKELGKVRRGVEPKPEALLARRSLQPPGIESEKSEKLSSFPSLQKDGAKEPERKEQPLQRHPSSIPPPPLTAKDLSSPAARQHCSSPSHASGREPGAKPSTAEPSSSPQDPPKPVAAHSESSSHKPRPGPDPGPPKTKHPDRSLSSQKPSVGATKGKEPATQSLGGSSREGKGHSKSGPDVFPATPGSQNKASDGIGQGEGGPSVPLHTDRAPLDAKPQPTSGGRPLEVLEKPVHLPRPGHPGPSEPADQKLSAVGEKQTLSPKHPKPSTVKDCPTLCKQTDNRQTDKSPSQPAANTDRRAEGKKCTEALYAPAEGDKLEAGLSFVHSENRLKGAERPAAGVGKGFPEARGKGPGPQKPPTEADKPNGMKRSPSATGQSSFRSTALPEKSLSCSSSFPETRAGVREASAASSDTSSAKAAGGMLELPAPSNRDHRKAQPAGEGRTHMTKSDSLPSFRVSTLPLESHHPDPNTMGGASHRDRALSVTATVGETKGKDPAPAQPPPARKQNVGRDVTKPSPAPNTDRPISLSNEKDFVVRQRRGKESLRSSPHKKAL
Chain of CAMK2G (Q13555 whole entry): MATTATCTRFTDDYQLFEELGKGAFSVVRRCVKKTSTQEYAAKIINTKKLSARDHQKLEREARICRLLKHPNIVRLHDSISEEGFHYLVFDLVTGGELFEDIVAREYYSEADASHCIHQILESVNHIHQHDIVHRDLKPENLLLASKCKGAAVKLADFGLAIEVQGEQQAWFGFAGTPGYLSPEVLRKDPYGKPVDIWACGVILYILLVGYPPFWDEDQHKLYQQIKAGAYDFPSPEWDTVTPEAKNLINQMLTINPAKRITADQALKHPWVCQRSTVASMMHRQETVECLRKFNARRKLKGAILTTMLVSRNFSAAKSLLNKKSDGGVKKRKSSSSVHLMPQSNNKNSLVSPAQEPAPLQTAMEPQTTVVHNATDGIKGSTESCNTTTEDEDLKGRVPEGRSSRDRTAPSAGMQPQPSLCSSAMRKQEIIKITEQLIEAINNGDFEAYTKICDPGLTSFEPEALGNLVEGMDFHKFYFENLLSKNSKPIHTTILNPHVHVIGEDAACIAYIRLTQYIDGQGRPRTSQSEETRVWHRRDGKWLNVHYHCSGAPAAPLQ

Regarding `C#CCNC(=O)c1cc(Nc2cc(C)[nH]n2)nc(N2CCN(Cc3ccc(S(=O)(=O)F)cc3)CC2)n1`, the negative logarithm of the IC50 (pIC50) at MAST4 (cell material: Lysate mix) is 6.06; on TNK1, 6.23; at LATS1 (cell material: Lysate mix), 4.65; at UniProt P51812 (cell material: Lysate mix), 5.11; at IRAK1 (cell material: Lysate mix) it was 5.11; on CAMK2G (cell material: Lysate mix) it was less than 4.52. In addition, the pIC50 is less than 4.52 at UniProt P25098 (cell material: Lysate mix), 4.89 at UniProt P68400 (cell material: Lysate mix) and less than 4.52 on UniProt Q02763.
For the compound `O=C(NCCNC(=O)c1cc(Nc2cc(C3CC3)[nH]n2)nc(N2CCN(Cc3ccc(S(=O)(=O)F)cc3)CC2)n1)OC1CC/C=C/CCC1` (stereo not drawn), the pIC50 on MAST4 (cell material: Jurkat cells) is 6.3; at MAST4 (cell material: Jurkat lysate), 5.17; at MAST4 (cell material: Lysate mix) it was 5.3; on TNK1 it was 5.44; at LATS1 (cell material: Jurkat cells), 5.78; at LATS1 (cell material: Jurkat lysate), less than 4.52. Besides, the pIC50 is less than 4.52 on LATS1 (cell material: Lysate mix); 5.86 at UniProt P51812 (cell material: Jurkat cells); less than 4.52 on UniProt P51812 (cell material: Jurkat lysate); less than 4.52 at UniProt P51812 (cell material: Lysate mix); 5.53 on IRAK1 (cell material: Jurkat cells); less than 4.52 on IRAK1 (cell material: Jurkat lysate). The pIC50 at CAMK2G (cell material: Jurkat cells) is less than 4.52; on CAMK2G (cell material: Jurkat lysate) it was less than 4.52; on CAMK2G (cell material: Lysate mix), less than 4.52; at UniProt P25098 (cell material: Jurkat cells), 5; on UniProt P25098 (cell material: Jurkat lysate), less than 4.52; on UniProt P25098 (cell material: Lysate mix), less than 4.52. The pIC50 at UniProt P68400 (cell material: Jurkat lysate), on UniProt P68400 (cell material: Lysate mix) and on UniProt Q02763 was less than 4.52 each time.
For `CCNC(=O)c1cc(Nc2cc(C3CC3)[nH]n2)nc(N2CCN(Cc3ccc(S(=O)(=O)F)cc3)CC2)n1`, the pIC50 at MAST4 (cell material: Lysate mix) was 6.37; at TNK1 it was 7.21; at LATS1 (cell material: Lysate mix), 5.3; on UniProt P51812 (cell material: Lysate mix) it was 5.28; at IRAK1 (cell material: Lysate mix), 5.72; on CAMK2G (cell material: Lysate mix), less than 4.52. Also, the pIC50 was less than 4.52 at UniProt P25098 (cell material: Lysate mix), 5.39 on UniProt P68400 (cell material: Lysate mix) and less than 4.52 on UniProt Q02763.
Turning to `Cc1cc(Nc2cc(C(=O)NCCNC(=O)OC3CC/C=C/CCC3)nc(N3CCN(Cc4ccc(S(=O)(=O)F)cc4)CC3)n2)n[nH]1` (stereo not drawn), the pIC50 was 4.74 at MAST4 (cell material: Lysate mix); 4.8 at TNK1; less than 4.52 at LATS1 (cell material: Lysate mix); less than 4.52 at UniProt P51812 (cell material: Lysate mix); less than 4.52 at IRAK1 (cell material: Lysate mix); less than 4.52 at CAMK2G (cell material: Lysate mix). The pIC50 on UniProt P25098 (cell material: Lysate mix), at UniProt P68400 (cell material: Lysate mix) and on UniProt Q02763 was less than 4.52 throughout.
Regarding `CCNC(=O)c1cc(Nc2cc(C)[nH]n2)nc(N2CCN(Cc3ccc(S(=O)(=O)F)cc3)CC2)n1`, the pIC50 on MAST4 (cell material: Lysate mix) was 6.4; at TNK1, 7.07; at LATS1 (cell material: Lysate mix), less than 4.52; at UniProt P51812 (cell material: Lysate mix) it was 4.87; at IRAK1 (cell material: Lysate mix), 4.8; at CAMK2G (cell material: Lysate mix), less than 4.52. The pIC50 at UniProt P25098 (cell material: Lysate mix) was less than 4.52; at UniProt P68400 (cell material: Lysate mix) it was 5.15; at UniProt Q02763, less than 4.52.
On to `C#CCNC(=O)c1cc(Nc2cc(C3CC3)[nH]n2)nc(N2CCN(Cc3ccc(S(=O)(=O)F)cc3)CC2)n1`, for which the pIC50 was 6.46 on MAST4 (cell material: Jurkat lysate); 7 at MAST4 (cell material: Lysate mix); 7.34 on TNK1; 6.2 at LATS1 (cell material: Jurkat cells); 4.7 on LATS1 (cell material: Jurkat lysate); 5.56 on LATS1 (cell material: Lysate mix). The negative logarithm of the IC50 (pIC50) is 5.96 at UniProt P51812 (cell material: Jurkat cells); less than 4.52 on UniProt P51812 (cell material: Jurkat lysate); 5.44 on UniProt P51812 (cell material: Lysate mix); less than 4.52 at IRAK1 (cell material: Jurkat cells); 5.37 on IRAK1 (cell material: Jurkat lysate); 5.96 on IRAK1 (cell material: Lysate mix). Further, the pIC50 at CAMK2G (cell material: Jurkat cells) is 5.13; at CAMK2G (cell material: Jurkat lysate) it was less than 4.52; at CAMK2G (cell material: Lysate mix), less than 4.52; at UniProt P25098 (cell material: Jurkat cells), 5.69; at UniProt P25098 (cell material: Jurkat lysate) it was less than 4.52; on UniProt P68400 (cell material: Jurkat cells), 5.62. Also, the pIC50 at UniProt P68400 (cell material: Jurkat lysate) is less than 4.52; at UniProt P68400 (cell material: Lysate mix) it was 5.02; at UniProt Q02763 it was less than 4.52.
